{"source": "ChEMBL document CHEMBL2074133", "about": "“Effect of phenobarbital on the expression of bile salt and organic anion transporters of rat liver” (J Hepatol, 2001)", "type_in_all_cases": "functional, organism-based, Sprague-Dawley", "key": {"[1]": {"molecular_target": "T1, Solute carrier organic anion transporter family member 1A1 (Rattus norvegicus, UniProt P46720)", "T1 sequence (P46720 whole entry)": "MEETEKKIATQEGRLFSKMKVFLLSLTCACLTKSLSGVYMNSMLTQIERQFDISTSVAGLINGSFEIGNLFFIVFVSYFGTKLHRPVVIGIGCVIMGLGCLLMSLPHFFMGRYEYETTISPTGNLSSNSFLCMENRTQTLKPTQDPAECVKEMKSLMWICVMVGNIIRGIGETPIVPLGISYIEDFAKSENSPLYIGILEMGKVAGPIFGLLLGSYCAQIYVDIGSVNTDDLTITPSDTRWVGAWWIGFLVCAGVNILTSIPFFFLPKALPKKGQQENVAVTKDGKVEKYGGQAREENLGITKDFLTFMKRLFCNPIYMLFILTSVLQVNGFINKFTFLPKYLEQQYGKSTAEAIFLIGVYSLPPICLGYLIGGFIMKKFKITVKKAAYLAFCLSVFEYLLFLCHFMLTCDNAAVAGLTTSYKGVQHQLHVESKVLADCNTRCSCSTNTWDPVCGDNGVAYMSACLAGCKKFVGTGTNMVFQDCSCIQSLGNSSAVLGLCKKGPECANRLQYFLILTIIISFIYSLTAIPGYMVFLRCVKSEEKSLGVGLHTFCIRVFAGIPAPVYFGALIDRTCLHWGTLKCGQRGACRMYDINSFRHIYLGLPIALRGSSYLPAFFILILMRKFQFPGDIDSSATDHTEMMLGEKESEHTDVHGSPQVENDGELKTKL", "assay": "(§1) TP_TRANSPORTER: Western in vivo SD rat, liver"}, "[2]": {"molecular_target": "T2, Solute carrier organic anion transporter family member 1A4 (Rattus norvegicus, UniProt O35913)", "T2 sequence (O35913 whole entry)": "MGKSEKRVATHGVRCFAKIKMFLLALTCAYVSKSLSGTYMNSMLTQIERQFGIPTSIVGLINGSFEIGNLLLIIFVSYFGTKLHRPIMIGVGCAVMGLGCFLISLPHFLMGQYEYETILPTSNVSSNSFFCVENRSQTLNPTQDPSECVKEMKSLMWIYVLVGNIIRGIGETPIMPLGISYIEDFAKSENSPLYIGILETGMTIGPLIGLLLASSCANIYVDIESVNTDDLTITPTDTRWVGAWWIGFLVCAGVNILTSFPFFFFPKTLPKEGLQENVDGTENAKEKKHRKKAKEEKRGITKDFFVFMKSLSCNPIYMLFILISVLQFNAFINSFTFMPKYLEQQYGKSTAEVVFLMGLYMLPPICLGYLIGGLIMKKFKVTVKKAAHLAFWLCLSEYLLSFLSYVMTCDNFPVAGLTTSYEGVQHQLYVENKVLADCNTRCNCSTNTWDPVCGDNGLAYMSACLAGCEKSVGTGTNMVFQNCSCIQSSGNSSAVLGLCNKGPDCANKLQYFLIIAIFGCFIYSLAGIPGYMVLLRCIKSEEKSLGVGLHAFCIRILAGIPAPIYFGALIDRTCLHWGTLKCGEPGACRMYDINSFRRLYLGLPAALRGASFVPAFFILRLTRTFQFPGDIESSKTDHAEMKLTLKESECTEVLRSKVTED", "assay": "as §1"}, "[3]": {"molecular_target": "T1, Solute carrier organic anion transporter family member 1A1", "assay": "(§2) TP_TRANSPORTER: Northern blot in vivo SD rat, liver"}, "[4]": {"molecular_target": "T2, Solute carrier organic anion transporter family member 1A4", "assay": "as §2"}}}
{"smiles": "CCC1(c2ccccc2)C(=O)NC(=O)NC1=O", "note": "[PHENOBARBITAL]", "values": [{"measurement": "Activity", "setting": "[1]", "value": "is not an inducer [-]"}, {"measurement": "Activity", "setting": "[2]", "value": "inducer [+]"}, {"measurement": "Activity", "setting": "[3]", "value": "is not an inducer [-]"}, {"measurement": "Activity", "setting": "[4]", "value": "inducer [+]"}]}
